The test relates to Reconstructed Human Epidermids (RHEs). The test is described as follows: trans-epithelial electrical resistance (TEER) testing. The format is cell-based. Particulars: SDS 0.1% solution on RHE, FIG. 3. As to the method: The formulations described in Tables B-F were tested for their effect on trans-epithelial electrical resistance according to the following procedure.
1 ml of saline solution is directly applied on the tissue placed in a 6 well plate containing 4 ml of saline solution as well.
The instrument Millicell-ERS (range 0-20 kΩ) is placed with the two electrodes in the two chambers and the measure is recorded directly and reported in the laboratory note book.
Five measurements for each tissue have been done: because of the variability within the tissues the measurement done at t=0 has been taken as basal value and reference of each single tissue.
At the arrival the tissues have been placed in 6 well plates with maintenance medium (SkinEthic) for 2 hours before the TEER measurements.
The basal TEER value is measured on all the tissue as described in the method.
The tissues have been recovered in maintenance medium (1 ml) and the test items have been applied at the dose of 50 μl.
Tissues have been finally incubated at 37° C. in 5% CO2 incubator.
The tissues have been rinsed with saline solution and the second TEER measurement, corresponding to the 24 h exposure, has been performed.
The RHEs have been recovered in fresh maintenance medium (1 ml) for a 24 h post incubation time. […]

Regarding `CCCCCCCCCCCCOS(=O)(=O)[O-].[Na+]` [sodium dodecyl sulphate], the TEER result was “strong decrease of TEER”.

(Values after patent publication US9404192B2, “Highly stable electrolytic water with reduced NMR half line width” (priority 2007, dated 2016).)
